Results: patent US11382915B2, “Treatment of focal segmental glomerulosclerosis with CCR2 antagonists” (CHEMOCENTRYX, INC., priority 2017, dated 2022)

Tests used:
[1] = system: partially nephrectomized mice; experiment: 5/6 nephrectomy model; assay type: in vivo; parameters: reduction in UACR / UACR reduction vs vehicle: concentration or dose not given beside the values; settings: for UACR reduction vs vehicle: 5/6 nephrectomy model (Example 7, FIG. 8), week one; for reduction in UACR: mono-therapy
Protocol: (§1) 5/6 nephrectomy mice on the 129X1/SvJ background were obtained from Jackson Laboratories, and were received at ChemoCentryx after the surgery was performed at JAX. Under isoflurane anesthesia, two-thirds of the left kidney mass was removed at 5-6 weeks of age. Then, after 7 to 10 days, a right unilateral nephrectomy was performed. The mice were fed a standard chow and had free access to water. Three weeks after the 5/6 nephrectomy, the mice were grouped to ensure a similar starting UAER in each treatment group. […] The RAAS blocker candesartan (AK Scientific, Union City, Calif.) and its vehicle were dosed orally once daily at 5 mg/kg formulated in water. Sparsentan, the dual-acting receptor antagonist for endothelin (A type) and angiotensin II receptors (Type 1) (Murugesan et al, 2005) was synthesized at ChemoCentryx and was dosed orally twice daily at 90 mg/kg formulated in 1% HPMC. The mice were housed individually in metabolic cages for quantitative collection of urinary albumin and creatinine.
(§2) Chemotaxis, calcium mobilization, and radio-ligand binding assays were conducted as previously described (Sullivan et al, 2013; Walters et al, 2010). Inhibition values (IC50) were calculated using non-linear regression with a one-site competition model (GraphPad Prism, GraphPad Software, La Jolla, Calif.). A2 values for assessment of potency in chemotaxis assays denotes the concentration of the antagonist required to right-shift by 2-fold the chemokine dose-response curve. […] Urinary albumin was measured by ELISA (Bethyl Labs, Montgomery, Tex.). Urinary and serum creatinine was measured by LC-MS/MS at ChemoCentryx. The urinary albumin excretion rate (UAER) was calculated as micrograms per 24 h. Blood urea nitrogen (BUN) was measured by Antech Diagnostics (Morrisville, N.C.). The albumin to creatinine ratio (ACR) was calculated as micrograms of albumin per milligram of creatinine.
To corroborated the above findings, another FSGS model mechanistically distinct from the Adriamycin approach was tested, the 5/6 nephrectomy model. Beginning three weeks after the completion of surgery, the mice were treated with Compound 1 or RAAS blocker either alone or in combination. As above, renal function was quantified by measuring the UACR, UAER serum creatinine and BUN levels.

[2] = system: kidneys of 5/6 nephrectomized mice; experiment: Histological analysis of kidneys from the 5/6 nephrectomy model; assay type: in vivo
Protocol: as §1, with “Sparsentan, the dual-acting receptor antagonist for endothelin (A type) and angiotensin II receptors (Type 1) (Murugesan et al, 2005) was synthesized at ChemoCentryx and was dosed orally twice daily at 90 mg/kg formulated in 1% HPMC.” left out
The kidneys were collected, fixed in formalin, embedded in paraffin, and cut into 5-μm-thick sections. […] Glomerular hypertrophy, mesangial expansion, glomerular sclerosis, and tubular structure were determined by examination of sections by an observer blinded to the treatment groups.
Fixed kidney sections were obtained from 5/6 nephrectomized mice for pathology. The sections were stained and evaluated to determine whether the Compound 1-mediated improvements in renal function were associated with anatomical changes.

[3] = molecular target: T1, CXCR7 (Homo sapiens, UniProt P25106); experiment: 293-CXCR7 Radio-ligand Binding; settings: read-out: Potency (IC50), CXCR7
T1 construct: expressed in transfected cells; host or cells: 293
T1 sequence (P25106 whole entry): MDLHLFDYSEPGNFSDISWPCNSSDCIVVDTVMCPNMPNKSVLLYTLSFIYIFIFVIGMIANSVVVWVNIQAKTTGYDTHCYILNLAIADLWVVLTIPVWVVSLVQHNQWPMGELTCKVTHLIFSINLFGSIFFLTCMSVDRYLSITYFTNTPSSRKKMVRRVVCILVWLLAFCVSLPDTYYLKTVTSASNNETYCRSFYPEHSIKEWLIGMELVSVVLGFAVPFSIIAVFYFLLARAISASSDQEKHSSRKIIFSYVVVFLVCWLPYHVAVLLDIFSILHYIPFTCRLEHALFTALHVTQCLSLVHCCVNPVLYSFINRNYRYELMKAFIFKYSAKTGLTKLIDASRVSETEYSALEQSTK
Protocol: as §2

[4] = molecular target: T2, CCR2 (Homo sapiens, UniProt P41597); experiment: CCR2 ThP1 Cell Chemotaxis; assay type: cell-based; settings: read-out: Potency (IC50), CCR2
T2 construct: cell lines that either endogenously expressed certain chemokine receptors; host or cells: ThP1
T2 sequence (P41597 1-360 isoform P41597-2): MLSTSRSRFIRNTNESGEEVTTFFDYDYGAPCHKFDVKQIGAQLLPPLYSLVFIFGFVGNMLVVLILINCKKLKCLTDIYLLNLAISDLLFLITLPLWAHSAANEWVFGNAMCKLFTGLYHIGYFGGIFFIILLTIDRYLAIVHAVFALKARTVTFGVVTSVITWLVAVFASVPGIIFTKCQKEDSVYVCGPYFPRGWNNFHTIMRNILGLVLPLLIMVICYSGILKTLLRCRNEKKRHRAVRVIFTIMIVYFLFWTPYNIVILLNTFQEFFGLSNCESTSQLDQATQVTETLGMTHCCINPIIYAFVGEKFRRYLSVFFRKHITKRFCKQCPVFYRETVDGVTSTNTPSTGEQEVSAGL
Protocol: as §2

[5] = molecular target: T3, CCR4 (Homo sapiens, UniProt P51679); experiment: CCR4 Activated Lymphocyte Calcium Mobilization; assay type: cell-based; settings: read-out: Potency (IC50), CCR4
T3 construct: endogenous in cells
T3 sequence (P51679 whole entry): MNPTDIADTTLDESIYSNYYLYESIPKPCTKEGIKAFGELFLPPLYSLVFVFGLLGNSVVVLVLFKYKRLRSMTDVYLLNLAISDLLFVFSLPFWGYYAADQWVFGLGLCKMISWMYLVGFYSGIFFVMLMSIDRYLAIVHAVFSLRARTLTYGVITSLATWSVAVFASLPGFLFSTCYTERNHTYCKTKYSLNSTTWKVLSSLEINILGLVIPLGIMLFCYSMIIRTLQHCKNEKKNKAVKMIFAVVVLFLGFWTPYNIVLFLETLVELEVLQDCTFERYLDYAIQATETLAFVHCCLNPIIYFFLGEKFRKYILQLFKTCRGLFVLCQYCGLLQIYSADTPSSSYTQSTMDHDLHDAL
Protocol: as §2

[6] = molecular target: T4, CCR3 (Homo sapiens, UniProt P51677); experiment: 293-CCR3 Calcium Mobilization; assay type: cell-based; settings: read-out: Potency (IC50), CCR3
T4 construct: expressed in transfected cells; host or cells: 293
Protocol: as §2

[7] = molecular target: T5, CCR10 (Homo sapiens, UniProt P46092); experiment: 293-CCR10 Calcium Mobilization; assay type: cell-based; settings: read-out: Potency (IC50), CCR10
T5 construct: expressed in transfected cells; host or cells: 293
T5 sequence (P46092 whole entry): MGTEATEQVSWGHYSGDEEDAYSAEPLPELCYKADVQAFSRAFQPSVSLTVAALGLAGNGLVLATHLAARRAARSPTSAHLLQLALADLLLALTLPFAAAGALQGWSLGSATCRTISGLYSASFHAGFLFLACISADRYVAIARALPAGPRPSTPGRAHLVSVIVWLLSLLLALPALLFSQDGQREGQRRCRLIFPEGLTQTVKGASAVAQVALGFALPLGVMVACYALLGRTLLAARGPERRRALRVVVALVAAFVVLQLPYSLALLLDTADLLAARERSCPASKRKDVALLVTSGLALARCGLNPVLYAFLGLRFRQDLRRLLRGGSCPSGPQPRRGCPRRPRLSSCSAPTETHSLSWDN
Protocol: as §2

[8] = molecular target: T6, C3aR (Homo sapiens, UniProt Q16581); experiment: C3aR Neutrophil Calcium Mobilization; assay type: cell-based; settings: read-out: Potency (IC50), C3aR
T6 construct: Human monocytes and neutrophils were isolated from healthy volunteers; host or cells: primary human neutrophils
Protocol: as §2

[9] = molecular target: T7, CCR9 (Homo sapiens, UniProt P51686); experiment: CCR9 Molt4 Serum Chemotaxis; assay type: cell-based; settings: read-out: Potency (IC50), CCR9
T7 construct: cell lines that either endogenously expressed certain chemokine receptors; endogenous in cells; host or cells: Molt4
Protocol: as §2

[10] = molecular target: T8, CXCR2 (Homo sapiens, UniProt P25025); experiment: CXCR2 Neutrophil Calcium Mobilization; assay type: cell-based; settings: read-out: Potency (IC50), CXCR2
T8 construct: Human monocytes and neutrophils were isolated from healthy volunteers; host or cells: primary human neutrophils
T8 sequence (P25025 whole entry): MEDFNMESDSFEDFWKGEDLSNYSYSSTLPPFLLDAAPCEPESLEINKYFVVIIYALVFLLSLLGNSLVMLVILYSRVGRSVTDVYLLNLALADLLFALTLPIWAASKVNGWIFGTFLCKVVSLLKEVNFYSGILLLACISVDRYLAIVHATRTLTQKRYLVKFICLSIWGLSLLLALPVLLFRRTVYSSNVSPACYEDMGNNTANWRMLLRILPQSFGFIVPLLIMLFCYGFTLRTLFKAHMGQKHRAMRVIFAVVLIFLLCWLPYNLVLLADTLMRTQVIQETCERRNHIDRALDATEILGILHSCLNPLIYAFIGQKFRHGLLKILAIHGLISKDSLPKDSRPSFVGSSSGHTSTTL
Protocol: as §2

[11] = molecular target: T9, CCR6 (Homo sapiens, UniProt P51684); experiment: CCR6 Activated Lymphocyte Calcium Mobilization; assay type: cell-based; settings: read-out: Potency (IC50), CCR6
T9 construct: endogenous in cells
T9 sequence (P51684 whole entry): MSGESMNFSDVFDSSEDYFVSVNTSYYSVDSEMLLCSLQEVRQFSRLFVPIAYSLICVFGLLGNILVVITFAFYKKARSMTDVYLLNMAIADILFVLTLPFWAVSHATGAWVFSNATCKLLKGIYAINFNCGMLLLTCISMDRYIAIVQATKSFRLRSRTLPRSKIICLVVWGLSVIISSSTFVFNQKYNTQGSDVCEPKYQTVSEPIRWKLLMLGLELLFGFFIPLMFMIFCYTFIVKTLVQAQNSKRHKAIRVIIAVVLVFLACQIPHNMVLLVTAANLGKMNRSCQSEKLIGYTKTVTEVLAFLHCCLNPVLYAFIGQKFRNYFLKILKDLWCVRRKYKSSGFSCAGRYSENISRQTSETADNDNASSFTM
Protocol: as §2

[12] = molecular target: T10, CXCR3 (Homo sapiens, UniProt P49682); experiment: CXCR3 Activated Lymphocyte Calcium Mobilization; assay type: cell-based; settings: read-out: Potency (IC50), CXCR3
T10 construct: endogenous in cells
T10 sequence (P49682 whole entry): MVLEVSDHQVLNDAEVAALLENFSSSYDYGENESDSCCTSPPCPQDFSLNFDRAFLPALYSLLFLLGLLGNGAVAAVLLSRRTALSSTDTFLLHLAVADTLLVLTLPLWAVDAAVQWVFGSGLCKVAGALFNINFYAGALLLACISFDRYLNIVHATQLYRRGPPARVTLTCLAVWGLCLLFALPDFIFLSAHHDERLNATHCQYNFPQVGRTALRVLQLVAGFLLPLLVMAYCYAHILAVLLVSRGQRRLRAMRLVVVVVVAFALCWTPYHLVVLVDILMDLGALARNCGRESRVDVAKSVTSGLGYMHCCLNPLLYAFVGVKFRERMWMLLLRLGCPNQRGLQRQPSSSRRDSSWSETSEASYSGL
Protocol: as §2

[13] = molecular target: T11, CCR1 (Homo sapiens, UniProt P32246); experiment: CCR1 Monocyte Chemotaxis; assay type: cell-based; settings: read-out: Potency (IC50), CCR1
T11 construct: Human monocytes and neutrophils were isolated from healthy volunteers; host or cells: primary human monocytes
T11 sequence (P32246 whole entry): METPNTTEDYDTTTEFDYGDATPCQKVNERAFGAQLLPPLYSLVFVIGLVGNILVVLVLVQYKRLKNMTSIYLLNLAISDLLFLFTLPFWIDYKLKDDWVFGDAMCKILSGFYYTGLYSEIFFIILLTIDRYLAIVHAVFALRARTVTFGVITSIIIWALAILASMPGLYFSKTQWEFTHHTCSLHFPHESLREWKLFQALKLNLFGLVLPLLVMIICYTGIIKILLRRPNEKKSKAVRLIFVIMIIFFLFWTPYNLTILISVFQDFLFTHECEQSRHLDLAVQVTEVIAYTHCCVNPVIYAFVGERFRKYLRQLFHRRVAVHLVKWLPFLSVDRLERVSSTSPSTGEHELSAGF
Protocol: as §2

[14] = molecular target: T12, CCR8 (Homo sapiens, UniProt P51685); experiment: 293-CCR8 Calcium Mobilization; assay type: cell-based; settings: read-out: Potency (IC50), CCR8
T12 construct: expressed in transfected cells; host or cells: 293
T12 sequence (P51685 whole entry): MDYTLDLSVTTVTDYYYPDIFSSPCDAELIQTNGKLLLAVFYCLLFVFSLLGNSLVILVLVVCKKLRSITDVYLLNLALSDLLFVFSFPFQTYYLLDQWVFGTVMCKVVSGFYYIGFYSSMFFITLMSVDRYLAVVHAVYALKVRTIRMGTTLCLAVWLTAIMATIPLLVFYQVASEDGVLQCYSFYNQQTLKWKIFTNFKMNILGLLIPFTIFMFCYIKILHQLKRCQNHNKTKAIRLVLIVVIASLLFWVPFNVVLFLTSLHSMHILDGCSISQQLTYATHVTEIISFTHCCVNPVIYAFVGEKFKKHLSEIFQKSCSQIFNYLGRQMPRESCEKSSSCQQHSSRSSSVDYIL
Protocol: as §2

[15] = molecular target: T13, CXCR5 (Homo sapiens, UniProt P32302); experiment: Baf3-CXCR5 Calcium Mobilization; assay type: cell-based; settings: read-out: Potency (IC50), CXCR5
T13 construct: expressed in transfected cells; host or cells: Baf3
Protocol: as §2

[16] = system: Adriamycin challenged mice; experiment: Adriamycin induced FSGS model; assay type: in vivo; settings: for UAER: Adriamycin nephropathy model, Compound 1 90 mg/kg s.c. once daily, RAAS blocker 5 mg/kg orally once daily
Protocol: These experiments were performed using female Balb/c mice (Jackson Laboratories, Bar Harbor, Me.). The mice were kept on standard chow and had free access to water. At age of 10 weeks, 7.5 mg/kg Adriamycin (Selleck Chemicals, Houston, Tex.) or saline (control) was injected via tail vein in isoflurane-anesthetized animals (day 0). […] The RAAS blocker Candesartan (AK Scientific, Union City, Calif.) and its vehicle were dosed orally once daily at 5 mg/kg, formulated in water. All dosing started 2 hours prior Adriamycin challenge. The mice were housed individually in metabolic cages for quantitative collection of urinary albumin and creatinine. Chemotaxis, calcium mobilization, and radio-ligand binding assays were conducted as previously described (Sullivan et al, 2013; Walters et al, 2010). Inhibition values (IC50) were calculated using non-linear regression with a one-site competition model (GraphPad Prism, GraphPad Software, La Jolla, Calif.). A2 values for assessment of potency in chemotaxis assays denotes the concentration of the antagonist required to right-shift by 2-fold the chemokine dose-response curve. […] Urinary albumin was measured by ELISA (Bethyl Labs, Montgomery, Tex.). Urinary and serum creatinine was measured by LC-MS/MS at ChemoCentryx. The urinary albumin excretion rate (UAER) was calculated as micrograms per 24 h. Blood urea nitrogen (BUN) was measured by Antech Diagnostics (Morrisville, N.C.). The albumin to creatinine ratio (ACR) was calculated as micrograms of albumin per milligram of creatinine. […] Adriamycin is an oncolytic antibiotic that induces proteinuria and glomerulosclerosis in rodents after a single infusion. […] The level of protection was equal to or better than that of RAAS blockade.

[17] = molecular target: T14, CXCR1 (Homo sapiens, UniProt P25024); experiment: CXCR1 Neutrophil Calcium Mobilization; assay type: cell-based; settings: read-out: Potency (IC50), CXCR1
T14 construct: Human monocytes and neutrophils were isolated from healthy volunteers; host or cells: primary human neutrophils
T14 sequence (P25024 whole entry): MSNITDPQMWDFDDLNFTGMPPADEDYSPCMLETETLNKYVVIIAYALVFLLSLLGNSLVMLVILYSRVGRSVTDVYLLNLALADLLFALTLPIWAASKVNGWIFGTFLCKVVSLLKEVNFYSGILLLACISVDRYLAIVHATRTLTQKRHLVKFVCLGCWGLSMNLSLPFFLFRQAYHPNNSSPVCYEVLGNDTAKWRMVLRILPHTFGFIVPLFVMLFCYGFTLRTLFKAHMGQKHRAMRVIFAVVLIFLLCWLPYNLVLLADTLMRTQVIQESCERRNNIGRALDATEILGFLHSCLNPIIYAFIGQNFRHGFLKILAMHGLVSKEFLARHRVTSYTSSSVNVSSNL
Protocol: as §2

[18] = molecular target: T15, CXCR4 (Homo sapiens, UniProt P61073); experiment: CXCR4 Activated Lymphocyte Calcium Mobilization; assay type: cell-based; settings: read-out: Potency (IC50), CXCR4
T15 construct: endogenous in cells
T15 sequence (P61073 whole entry): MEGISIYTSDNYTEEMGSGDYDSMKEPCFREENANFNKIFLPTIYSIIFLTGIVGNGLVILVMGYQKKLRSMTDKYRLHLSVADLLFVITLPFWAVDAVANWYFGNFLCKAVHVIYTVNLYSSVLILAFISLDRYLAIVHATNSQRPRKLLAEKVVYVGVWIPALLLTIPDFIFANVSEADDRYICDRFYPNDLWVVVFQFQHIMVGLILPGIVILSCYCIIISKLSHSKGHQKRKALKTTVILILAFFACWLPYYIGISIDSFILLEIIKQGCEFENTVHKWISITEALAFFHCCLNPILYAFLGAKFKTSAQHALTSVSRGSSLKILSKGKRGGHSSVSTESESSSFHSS
Protocol: as §2

[19] = Mouse pharmacokinetic (PK) study; assay type: in vivo; settings: male, 129s, plasma, sc, mice, single s.c. injection at 90 mg/kg, 24 hours post-dosing
Protocol: Blood was drawn at 0.5, 2, […], 4, 8, 12, and 24 hours post-dosing. Compound 1 drug level was analyzed by LC-MS/MS at ChemoCentryx with plasma samples.
To determine if Compound 1 was suitable for in vivo experiments, we analyzed its pharmacokinetic profile in mice.

[20] = molecular target: T16, CXCR6 (Homo sapiens, UniProt O00574); experiment: CXCR6 Activated Lymphocyte Buffer Chemotaxis; assay type: cell-based; settings: read-out: Potency (IC50), CXCR6
T16 construct: endogenous in cells
Protocol: as §2

[21] = molecular target: T17, C5aR (Homo sapiens, UniProt P21730); experiment: C5aR Neutrophil Calcium Mobilization; assay type: cell-based; settings: read-out: Potency (IC50), C5aR
T17 construct: Human monocytes and neutrophils were isolated from healthy volunteers; host or cells: primary human neutrophils
Protocol: as §2

[22] = molecular target: T18, CCR7 (Homo sapiens, UniProt P32248); experiment: CCR7 Activated Lymphocyte Calcium Mobilization; assay type: cell-based; settings: read-out: Potency (IC50), CCR7
T18 construct: endogenous in cells
T18 sequence (P32248 25-378): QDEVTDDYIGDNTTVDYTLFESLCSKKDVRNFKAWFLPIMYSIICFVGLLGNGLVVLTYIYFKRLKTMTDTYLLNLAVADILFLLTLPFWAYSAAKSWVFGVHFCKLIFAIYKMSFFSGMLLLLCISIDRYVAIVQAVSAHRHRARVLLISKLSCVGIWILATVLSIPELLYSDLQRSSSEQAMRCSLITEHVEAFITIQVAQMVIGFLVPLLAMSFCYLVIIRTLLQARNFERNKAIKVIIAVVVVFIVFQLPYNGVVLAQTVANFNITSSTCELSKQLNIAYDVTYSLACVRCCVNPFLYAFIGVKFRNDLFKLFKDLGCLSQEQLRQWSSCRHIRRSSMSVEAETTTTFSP
Protocol: as §2

[23] = molecular target: T19, CCR2 (Mus musculus, UniProt P51683); experiment: Inhibition of radio-labeled mJE (CCL2) binding to WEHI-274 cells; settings: WEHI-274 murine monocyte cell line endogenously expressing CCR2
T19 construct: WEHI-274 murine monocyte cell line that endogenously expresses CCR2; host or cells: WEHI-274.1
T19 sequence (P51683 whole entry): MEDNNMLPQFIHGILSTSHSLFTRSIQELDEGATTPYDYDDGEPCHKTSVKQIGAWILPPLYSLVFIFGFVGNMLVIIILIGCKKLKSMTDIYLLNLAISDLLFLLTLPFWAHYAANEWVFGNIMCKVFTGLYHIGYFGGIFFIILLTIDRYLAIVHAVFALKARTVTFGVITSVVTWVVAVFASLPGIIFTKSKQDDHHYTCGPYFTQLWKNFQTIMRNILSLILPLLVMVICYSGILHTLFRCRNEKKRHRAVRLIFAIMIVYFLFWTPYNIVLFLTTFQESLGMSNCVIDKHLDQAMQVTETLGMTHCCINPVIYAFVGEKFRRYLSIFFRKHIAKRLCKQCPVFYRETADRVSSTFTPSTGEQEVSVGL
Protocol: as §2

[24] = 5/6 nephrectomy model (Table 3), Week 1, Compound 1 90 mg/kg, RAAS Blocker 5 mg/kg
[25] = 5/6 nephrectomy model (Table 3), Week 2, Compound 1 90 mg/kg, RAAS Blocker 5 mg/kg
[26] = 5/6 nephrectomy model (Table 3), Week 3, Compound 1 90 mg/kg, RAAS Blocker 5 mg/kg
[27] = 5/6 nephrectomy model, comparison with ET1/AT2 dual inhibitor (Table 4), Week 1
[28] = 5/6 nephrectomy model, comparison with ET1/AT2 dual inhibitor (Table 4), Week 2
[29] = 5/6 nephrectomy model, comparison with ET1/AT2 dual inhibitor (Table 4), Week 4

SMILES: Cc1cnc(C(=O)c2ccnc3[nH]ccc23)c(NS(=O)(=O)c2ccc(Cl)c(C(F)(F)F)c2)c1 [Compound 1]
- UACR reduction vs vehicle [1]: 64.8%
- UAER [1, 24]: 15.68, p = 0.30 mg/day
- UAER [1, 25]: 6.72, p = 0.07 mg/day
- UAER [1, 26]: 11.75, p = 0.001 mg/day
- UAER [1, 27]: 7.1, p = 0.07 mg/day
- UAER [1, 28]: 11.0, p = 0.1 mg/day
- UAER [1, 29]: 2.8, p = 0.02 mg/day
- UACR, in words ([1]; 5/6 nephrectomy model, four-week study): markedly reduced
- reduction in UACR ([1]; 5/6 nephrectomy model, week four): 57%
- reduction in UACR ([1]; 5/6 nephrectomy model, week three): 72%
- creatinine and BUN, in words ([1]; 5/6 nephrectomy model, with respect to vehicle control, four-week time point): marked reductions
- kidney histology at 400× magnification (glomeruli), in words [2]: decreased glomerular sclerosis, mesangial expansion, hyaline deposits and tubular collapse
- kidney histology at 100× magnification, in words ([2]; with respect to vehicle control): reductions in tubular dilation and hyaline deposits
- IC50 [3]: > 10 µM
- IC50 [4]: 0.0005 µM
- IC50 [5]: > 10 µM
- IC50 [6]: > 10 µM
- IC50 [7]: > 10 µM
- IC50 [8]: > 10 µM
- IC50 [9]: > 10 µM
- IC50 [10]: > 10 µM
- IC50 [11]: > 8 µM
- IC50 [12]: > 10 µM
- IC50 [13]: > 10 µM
- IC50 [14]: > 10 µM
- IC50 [15]: > 10 µM
- UAER ([16]; Week 1): 26.15, p = 0.06 mg/day
- UAER ([16]; Week 2): 24.19, p = 0.032 mg/day
- UAER, in words ([16]; Adriamycin treated mice): significant reduction
- IC50 [17]: > 10 µM
- IC50 [18]: > 10 µM
- concentration at 24 h [19]: ~3.5 µM
- IC50 [20]: > 10 µM
- IC50 [21]: > 10 µM
- IC50 [22]: > 10 µM
- IC50 [23]: 0.27 µM

SMILES: CCCCC1=NC2(CCCC2)C(=O)N1Cc1ccc(-c2ccccc2S(=O)(=O)Nc2noc(C)c2C)c(COCC)c1 [ET1/AT2 Dual Blocker, Sparsentan, reference compound]
- UACR reduction vs vehicle [1]: 93.5%
- UAER [1, 27]: 2.6, p = 0.036 mg/day
- UAER [1, 28]: 1.5, p = 0.01 mg/day
- UAER [1, 29]: 1.15, p = 0.001 mg/day

SMILES: CCOc1nc2cccc(C(=O)O)c2n1Cc1ccc(-c2ccccc2-c2nnn[nH]2)cc1 [RAAS Blocker, Candesartan, reference compound]
- UACR reduction vs vehicle [1]: 73.4%
- UAER [1, 24]: 8.27, p = 0.03 mg/day
- UAER [1, 25]: 3.62, p = 0.03 mg/day
- UAER [1, 26]: 3.32, p < 0.0001 mg/day
- UAER [1, 27]: 9.4, p = 0.27 mg/day
- UAER [1, 28]: 7.7, p = 0.06 mg/day
- UAER [1, 29]: 1.7, p = 0.02 mg/day
- UAER ([16]; Week 1): 39.46, p = 0.16 mg/day
- UAER ([16]; Week 2): 66.87 mg/day
